In article PMC8316980 (ACS chemical neuroscience, 2019):

Target: T1, MD-2 (myeloid differentiation protein 2) (Homo sapiens, UniProt Q9Y6Y9)
T1 sequence (Q9Y6Y9 19-160): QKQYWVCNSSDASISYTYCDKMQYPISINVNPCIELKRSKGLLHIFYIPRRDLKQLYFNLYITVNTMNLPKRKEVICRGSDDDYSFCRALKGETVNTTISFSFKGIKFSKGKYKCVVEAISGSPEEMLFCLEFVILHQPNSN
Assay: intrinsic fluorescence quenching titration
Type: binding

In the case of CN[C@@H](C)Cc1ccccc1 [methamphetamine], the Kd is reported as 6.7 ± 0.6 µM.
